The source made the active and inactive calls.
Assays:
[1] = target: T1, Small ubiquitin-related modifier 1 (Homo sapiens, UniProt P63165); test: inhibitors of SUMO1 partner interactions, dose response, biochemical, FRET (AID 624383); type: functional; conditions: read-out: IC50_Mean
[2] = target: T1, Small ubiquitin-related modifier 1; test: inhibitors of SUMO1 peptide binding, dose response, biochemical, fluorescence polarization, uHTS hits (AID 624382); type: functional; conditions: read-out: IC50_Mean
[3] = target: T2, Endoribonuclease toxin MazF (Escherichia coli K-12, UniProt P0AE70); test: fluorescent RNA oligo signal without MazF, dose response, counter-screen for MazEF activator project, biochemical, fluorescence, single-stranded RNase substrate (AID 588502); type: functional
T2 sequence (P0AE70 whole entry): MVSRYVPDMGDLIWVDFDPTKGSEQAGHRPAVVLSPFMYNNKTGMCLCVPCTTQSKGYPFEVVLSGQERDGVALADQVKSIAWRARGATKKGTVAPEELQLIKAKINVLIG

[4] = target: Albumin (Bos taurus, UniProt P02769); test: Counterscreen for inhibitors of T-cell receptor (TCR)-CD3 interaction: Fluorescence-based biochemical high throughput dose response assay to identify inhibitors of T-cell receptor (TCR)-CD3 interaction using a TAMRA-labeled BSA probe.; type: functional
Sequence of Albumin (P02769 whole entry): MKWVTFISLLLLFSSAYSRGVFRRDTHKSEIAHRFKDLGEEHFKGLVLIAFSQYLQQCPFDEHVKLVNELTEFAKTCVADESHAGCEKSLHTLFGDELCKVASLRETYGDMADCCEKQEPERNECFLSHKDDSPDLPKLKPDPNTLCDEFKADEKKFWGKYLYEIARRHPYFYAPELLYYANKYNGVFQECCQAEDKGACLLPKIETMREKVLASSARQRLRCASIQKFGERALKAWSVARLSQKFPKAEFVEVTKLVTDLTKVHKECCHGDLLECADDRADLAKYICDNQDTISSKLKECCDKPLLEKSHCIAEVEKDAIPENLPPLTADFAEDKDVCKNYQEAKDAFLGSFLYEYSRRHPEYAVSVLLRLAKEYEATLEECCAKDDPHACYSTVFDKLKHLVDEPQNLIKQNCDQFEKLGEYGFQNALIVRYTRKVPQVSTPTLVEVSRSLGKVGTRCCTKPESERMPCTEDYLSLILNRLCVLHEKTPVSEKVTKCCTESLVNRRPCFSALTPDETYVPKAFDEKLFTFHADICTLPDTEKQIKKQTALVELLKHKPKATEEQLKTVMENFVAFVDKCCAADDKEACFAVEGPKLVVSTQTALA

[5] = target: T2, Endoribonuclease toxin MazF; test: MazF toxin RNase activators, dose response, biochemical, fluorescence, single-stranded RNA substrate, uHTS hits (AID 588481); type: functional
[6] = target: Beta-galactosidase (Escherichia coli, UniProt Q8VNN2); test: Dose response counterscreen for EBI2 assay utilizing the enzyme, b-galactosidase.; type: functional
Sequence of Beta-galactosidase (Q8VNN2 whole entry, the tested form may be a part): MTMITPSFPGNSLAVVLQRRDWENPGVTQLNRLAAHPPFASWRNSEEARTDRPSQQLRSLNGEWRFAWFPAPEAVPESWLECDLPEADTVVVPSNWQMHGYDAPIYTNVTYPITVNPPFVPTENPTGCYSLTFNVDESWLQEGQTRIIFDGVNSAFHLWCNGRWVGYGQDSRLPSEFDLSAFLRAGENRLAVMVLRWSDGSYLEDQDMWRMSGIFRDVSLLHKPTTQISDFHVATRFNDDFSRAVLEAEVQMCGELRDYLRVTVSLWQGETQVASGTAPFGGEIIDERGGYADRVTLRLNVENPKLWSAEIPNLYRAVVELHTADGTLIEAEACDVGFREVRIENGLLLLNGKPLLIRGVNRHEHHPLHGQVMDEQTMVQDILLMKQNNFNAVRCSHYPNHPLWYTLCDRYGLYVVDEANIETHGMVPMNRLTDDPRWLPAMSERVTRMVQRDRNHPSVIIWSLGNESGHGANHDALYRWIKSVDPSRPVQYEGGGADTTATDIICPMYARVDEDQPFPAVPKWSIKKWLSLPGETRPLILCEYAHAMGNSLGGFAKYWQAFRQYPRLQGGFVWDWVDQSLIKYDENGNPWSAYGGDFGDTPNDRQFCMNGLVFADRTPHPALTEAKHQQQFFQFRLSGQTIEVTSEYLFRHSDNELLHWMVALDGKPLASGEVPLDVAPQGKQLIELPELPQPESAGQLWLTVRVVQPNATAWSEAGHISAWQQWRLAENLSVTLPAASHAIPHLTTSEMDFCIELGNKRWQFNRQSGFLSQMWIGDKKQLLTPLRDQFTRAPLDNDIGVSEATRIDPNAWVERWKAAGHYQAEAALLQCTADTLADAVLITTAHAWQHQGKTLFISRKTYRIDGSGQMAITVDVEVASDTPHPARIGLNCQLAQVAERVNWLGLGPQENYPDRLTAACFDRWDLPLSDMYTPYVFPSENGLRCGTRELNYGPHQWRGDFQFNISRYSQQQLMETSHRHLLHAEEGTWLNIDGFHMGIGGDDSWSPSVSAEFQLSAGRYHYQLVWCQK

[7] = target: T3, Sentrin-specific protease 1 (Homo sapiens, UniProt Q9P0U3); test: Dose response confirmation of small molecule inhibitors of the catalytic domain of the SUMO protease, SENP1 in a FRET assay.; type: functional; conditions: read-out: IC50_Mean
T3 sequence (Q9P0U3 whole entry, the tested form may be a part): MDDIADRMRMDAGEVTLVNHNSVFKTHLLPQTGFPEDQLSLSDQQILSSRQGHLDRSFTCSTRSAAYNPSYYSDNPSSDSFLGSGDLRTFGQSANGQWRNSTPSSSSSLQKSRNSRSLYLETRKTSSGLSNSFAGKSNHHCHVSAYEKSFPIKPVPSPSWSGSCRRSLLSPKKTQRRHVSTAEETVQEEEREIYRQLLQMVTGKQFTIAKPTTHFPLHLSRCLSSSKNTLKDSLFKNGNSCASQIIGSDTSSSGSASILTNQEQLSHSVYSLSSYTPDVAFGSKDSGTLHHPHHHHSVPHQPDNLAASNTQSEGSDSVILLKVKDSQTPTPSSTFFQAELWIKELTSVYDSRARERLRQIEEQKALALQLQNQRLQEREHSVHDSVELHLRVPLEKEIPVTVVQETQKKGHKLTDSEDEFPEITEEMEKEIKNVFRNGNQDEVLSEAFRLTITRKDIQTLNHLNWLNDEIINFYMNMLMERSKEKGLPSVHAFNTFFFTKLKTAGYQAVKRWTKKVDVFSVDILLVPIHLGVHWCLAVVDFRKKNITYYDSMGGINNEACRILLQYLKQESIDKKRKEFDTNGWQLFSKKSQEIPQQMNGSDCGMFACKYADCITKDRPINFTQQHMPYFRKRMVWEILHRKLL

[8] = target: T4, Rac GTPase-activating protein 1 (Homo sapiens, UniProt Q9H0H5); test: MgcRacGAP GTPase-activating activity inhibitors, confirmation, biochemical, ADP Hunter fluorescence, primary and confirmatory (AID 624330); type: functional
T4 sequence (Q9H0H5 whole entry): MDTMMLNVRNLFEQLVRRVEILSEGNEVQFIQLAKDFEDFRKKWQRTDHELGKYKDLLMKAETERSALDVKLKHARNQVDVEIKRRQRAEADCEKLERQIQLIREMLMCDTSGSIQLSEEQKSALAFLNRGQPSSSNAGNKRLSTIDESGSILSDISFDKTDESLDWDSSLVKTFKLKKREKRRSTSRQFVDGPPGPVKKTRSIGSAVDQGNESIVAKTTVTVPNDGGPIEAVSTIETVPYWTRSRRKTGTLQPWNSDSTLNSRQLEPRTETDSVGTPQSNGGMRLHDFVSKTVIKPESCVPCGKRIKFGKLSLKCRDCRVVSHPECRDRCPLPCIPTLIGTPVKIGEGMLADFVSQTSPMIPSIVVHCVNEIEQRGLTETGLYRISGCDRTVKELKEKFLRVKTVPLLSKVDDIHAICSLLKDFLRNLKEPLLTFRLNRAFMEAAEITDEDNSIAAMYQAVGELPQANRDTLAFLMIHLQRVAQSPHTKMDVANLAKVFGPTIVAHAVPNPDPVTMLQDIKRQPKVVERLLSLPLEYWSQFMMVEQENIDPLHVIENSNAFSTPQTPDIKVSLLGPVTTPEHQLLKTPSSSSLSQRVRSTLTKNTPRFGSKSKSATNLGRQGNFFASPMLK

[9] = target: T3, Sentrin-specific protease 1; test: potency of human SENP1 inhibitors, dose response, biochemical, kinetic FRET (AID 651697); type: functional; conditions: read-out: IC50_Mean
[10] = test system: A549; test: A549 cell toxicity, dose response, cytotoxicity control, plate reader, cherry-pick samples (AID 687028); type: functional, cell-based; conditions: Homo sapiens
[11] = test system: Vero; test: Vero cell toxicity, dose response, cytotoxicity control, plate reader, cherry-pick samples (AID 687020); type: functional, cell-based; conditions: Chlorocebus sabaeus
[12] = target: Nonstructural protein 1 (Influenza A virus, UniProt Q194T2); type: functional, Influenza A virus (A/California/07/2009(H1N1))
Sequence of Nonstructural protein 1 (Q194T2 whole entry): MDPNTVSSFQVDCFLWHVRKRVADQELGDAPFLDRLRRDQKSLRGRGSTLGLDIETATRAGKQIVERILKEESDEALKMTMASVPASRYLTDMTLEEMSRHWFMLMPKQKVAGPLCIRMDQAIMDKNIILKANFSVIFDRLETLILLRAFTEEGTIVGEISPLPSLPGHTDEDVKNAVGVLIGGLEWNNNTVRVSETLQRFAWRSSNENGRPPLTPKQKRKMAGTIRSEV

[13] = target: T5, Heat shock factor protein 1 (Mus musculus, UniProt P38532); test: inhibition of MG132-induced HSE-luciferase signal, confirmation, cell-based, NIH3T3, luminescence, dose retest (AID 2382); type: functional;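 note: NIH3T3 fibroblasts with HSF1-driven luciferase reporter stressed by proteasome inhibitor MG132; luminescence from HSF1-driven luciferase expression after 8 hours of MG132 stress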
T5 sequence (P38532 whole entry): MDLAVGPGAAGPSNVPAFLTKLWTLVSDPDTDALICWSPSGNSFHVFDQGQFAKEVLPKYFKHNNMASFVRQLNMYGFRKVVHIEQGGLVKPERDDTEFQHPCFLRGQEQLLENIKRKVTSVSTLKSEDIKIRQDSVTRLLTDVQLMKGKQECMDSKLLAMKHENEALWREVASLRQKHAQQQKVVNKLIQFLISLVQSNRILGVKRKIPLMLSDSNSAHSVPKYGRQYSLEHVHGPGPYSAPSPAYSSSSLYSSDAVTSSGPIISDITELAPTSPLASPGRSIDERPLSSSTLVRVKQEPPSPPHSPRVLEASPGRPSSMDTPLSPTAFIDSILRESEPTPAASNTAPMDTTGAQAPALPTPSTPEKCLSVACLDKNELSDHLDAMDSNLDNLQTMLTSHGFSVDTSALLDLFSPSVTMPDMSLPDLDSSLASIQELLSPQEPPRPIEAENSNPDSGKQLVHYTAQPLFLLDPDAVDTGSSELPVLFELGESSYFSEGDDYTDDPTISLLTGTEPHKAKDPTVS

[14] = target: T6, Aminopeptidase N (Plasmodium falciparum FcB1/Columbia, UniProt O96935); test: P. falciparum M1AAP inhibitors, biochemical, fluorogenic H-Leu-NHMec substrate, 1536-well (AID 1445); design: species or system Plasmodium falciparum 3D7, 3D7
T6 sequence (O96935 whole entry): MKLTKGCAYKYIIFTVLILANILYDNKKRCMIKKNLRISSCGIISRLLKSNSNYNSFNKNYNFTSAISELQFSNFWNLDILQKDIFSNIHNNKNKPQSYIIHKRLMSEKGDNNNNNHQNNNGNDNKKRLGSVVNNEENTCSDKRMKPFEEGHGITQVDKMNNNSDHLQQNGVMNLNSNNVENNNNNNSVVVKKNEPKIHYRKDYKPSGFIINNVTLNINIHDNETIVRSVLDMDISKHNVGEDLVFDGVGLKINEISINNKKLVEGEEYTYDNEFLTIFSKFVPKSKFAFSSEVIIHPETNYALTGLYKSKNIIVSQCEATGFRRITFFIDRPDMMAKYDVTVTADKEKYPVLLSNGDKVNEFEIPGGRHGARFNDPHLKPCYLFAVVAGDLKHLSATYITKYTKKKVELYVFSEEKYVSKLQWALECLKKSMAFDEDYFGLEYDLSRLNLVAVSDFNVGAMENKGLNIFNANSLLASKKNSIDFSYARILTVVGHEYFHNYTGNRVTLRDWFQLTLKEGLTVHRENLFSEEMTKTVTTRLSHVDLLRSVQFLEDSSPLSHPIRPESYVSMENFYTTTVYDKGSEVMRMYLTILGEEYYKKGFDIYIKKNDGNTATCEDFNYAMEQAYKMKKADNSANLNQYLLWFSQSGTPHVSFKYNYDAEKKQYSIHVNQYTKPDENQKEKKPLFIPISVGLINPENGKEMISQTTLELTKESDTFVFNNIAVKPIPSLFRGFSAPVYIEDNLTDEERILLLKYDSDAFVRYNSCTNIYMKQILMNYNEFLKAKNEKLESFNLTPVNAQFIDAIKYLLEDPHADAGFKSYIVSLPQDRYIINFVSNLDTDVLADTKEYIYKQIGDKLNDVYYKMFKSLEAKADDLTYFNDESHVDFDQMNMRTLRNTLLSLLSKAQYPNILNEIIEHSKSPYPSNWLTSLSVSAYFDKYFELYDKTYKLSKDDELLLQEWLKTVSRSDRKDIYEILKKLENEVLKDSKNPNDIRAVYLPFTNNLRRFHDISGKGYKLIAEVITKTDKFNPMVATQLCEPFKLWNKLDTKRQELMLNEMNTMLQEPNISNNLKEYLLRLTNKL

[15] = target: Long-chain-fatty-acid--AMP ligase FadD28 (Mycobacterium tuberculosis, UniProt P9WQ59); test: Fluorescence polarization aasay to screen for inhibitors that compete for the binding of FadD28 to a bisubstrate Measured in Biochemical System Using Plate Reader - 2147-01_Inhibitor_Dose_CherryPick_Activity.; type: functional, Mycobacterium tuberculosis H37Rv
Sequence of Long-chain-fatty-acid--AMP ligase FadD28 (P9WQ59 whole entry): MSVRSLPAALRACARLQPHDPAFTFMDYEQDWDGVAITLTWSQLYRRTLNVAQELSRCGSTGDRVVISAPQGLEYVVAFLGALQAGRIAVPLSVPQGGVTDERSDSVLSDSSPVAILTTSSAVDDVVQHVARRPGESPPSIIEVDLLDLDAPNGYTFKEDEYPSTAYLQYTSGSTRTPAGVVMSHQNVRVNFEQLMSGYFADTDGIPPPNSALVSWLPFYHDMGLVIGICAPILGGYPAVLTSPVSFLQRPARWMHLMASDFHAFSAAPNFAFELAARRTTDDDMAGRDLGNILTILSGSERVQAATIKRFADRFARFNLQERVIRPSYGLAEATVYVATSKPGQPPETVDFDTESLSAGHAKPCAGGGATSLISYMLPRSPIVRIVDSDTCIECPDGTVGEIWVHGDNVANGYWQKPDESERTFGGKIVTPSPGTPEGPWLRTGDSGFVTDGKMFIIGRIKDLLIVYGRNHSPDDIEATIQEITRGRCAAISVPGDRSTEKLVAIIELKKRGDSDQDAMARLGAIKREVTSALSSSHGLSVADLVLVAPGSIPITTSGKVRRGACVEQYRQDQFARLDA

T1 sequence (P63165 whole entry): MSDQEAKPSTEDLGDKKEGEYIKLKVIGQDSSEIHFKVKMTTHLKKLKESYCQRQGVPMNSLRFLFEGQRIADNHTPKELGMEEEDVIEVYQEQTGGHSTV

**Q.** Which IC50 [1] does the source give for `CCCC(C)C(=O)Nc1nc(C)c(-c2csc(Nc3cc(Cl)ccc3C)n2)s1` (stereo not given) here?
**A.** The IC50 was 10.2 µM (active).

**Q.** What about the IC50 [2] of the same molecule?
**A.** Its IC50 is > 66.6 µM (inactive).

**Q.** How did the EC50 [3] turn out when `COC(=O)CC1(C(=O)OC)Nc2cc(Cl)c(Cl)cc2S(=O)(=O)N1O` (stereo not given) was run?
**A.** Its EC50 is > 99 µM (inactive).

**Q.** What about the IC50 [4] of the same molecule?
**A.** The IC50 was > 94.2 µM (inactive).

**Q.** What about the EC50 [5] of the same molecule?
**A.** Its EC50 is 1.14 µM (active).

**Q.** With `CCOC(=O)C1CCN(C(=O)c2cc3c(s2)-c2ccccc2OC3)CC1` as the molecule, how does the IC50 [6] read?
**A.** The IC50 was > 80 µM (inactive).

**Q.** `C/C(=N\NC(=O)c1ccccc1F)c1ccc2c(c1)Nc1ccccc1S2` was tested. Which IC50 [7] did it give?
**A.** The IC50 was 10.5 µM (active).

**Q.** What about the IC50 [8] of the same molecule?
**A.** Its IC50 is 54.7 µM (active).

**Q.** What about the IC50 [9] of the same molecule?
**A.** Its IC50 is 11.2 µM (active).

**Q.** Which AC50 [10] does the source give for `O=C(OCc1cn([C@H]2CN(C(=O)C3CCCCC3)[C@@H](c3ccccc3)C[C@@H]2O)nn1)c1ccccc1` here?
**A.** Its AC50 is 16.1 µM (active).

**Q.** And the AC50 [11]?
**A.** Its AC50 is 20.2 µM (active).

**Q.** Which results are given for `CCOc1ccc(N2C(=O)/C(=C\NNc3nnc(C)c(O)n3)c3ccccc3C2=O)cc1`?
**A.** IC50 [12]: 5.02 µM (active); EC50 [13]: > 195 µM (not active); IC50 [14]: 20.9 µM (active); AC50 [15]: 64.9 µM (active)

Reference: ChEMBL document CHEMBL1201862, “PubChem BioAssay data set” (2004)
